Patent US11344512B2, “Titration of tapentadol” (Grünenthal GmbH, priority 2007, dated 2022)

What was measured:
[1] = system: patients with chronic low back pain or chronic pain from osteoarthritis of the knee or hip; assay: Example E-3: opioid withdrawal after 90 days treatment (COWS and SOWS questionnaires), phase III trial; format: in vivo, human (patients); settings: for patients reporting mild-to-moderate withdrawal symptoms (COWS assessment): 2 to 4 days after study medication ceased, after 90 days treatment
Experimental: The symptoms of opioid withdrawal following long-term treatment (90 days) with tapentadol immediate release (IR) compared with oxycodone IR were evaluated in a randomized, double-blind, active-control, parallel group, flexible dose, multicenter phase III trial of patients with chronic low back pain of chronic pain from osteoarthritis of the knee or hip. Patients (N=849) were randomly assigned in a 4:1 ratio to a flexible dose of tapentadol IR (50 or 100 mg/dose; maximum 600 mg/day) or oxycodone IR (10 or 15 mg/dose; maximum 90 mg/day) every 4 to 6 hours. Symptoms of withdrawal following opioid discontinuation were examined using the Clinical Opioid Withdrawal Score (COWS) and the Subjective Opioid Withdrawal Score (SOWS) questionnaires. […] The mean total SOWS score, 2 to 4 days after last study drug intake, was lower for the tapentadol IR group (6.9) than the oxycodone IR group (8.7). […] In addition, 5 or more days after last study drug intake, the mean total SOWS score was 6.3 for the tapentadol IR group and 7.0 for the oxycodone IR group (no significant difference).

[2] = system: patients with osteoarthritis of hip/knee or chronic low back pain; assay: Clinical studies C-1/C-2 (without titration) and E-1/E-2 (forced titration): occurrence of somnolence; format: in vivo, human (patients)
Experimental: A randomized, double-blind, multiple dose, parallel-group study assessing the efficacy and safety of 3 dosages of tapentadol prolonged release (bid) (25 mg, 50 mg and 100 mg) compared to oxycodone prolonged release (bid) 20 mg and placebo over 28 days in patients with hip and/or knee-joint osteoarthritis. Subjects: 40-75 years old, male and female patients. 375 patients, randomized to placebo, standard opioid, tapentadol. Treatment Regimen: Day 1 only evening dose Day 2—Day 28 bid Day 29 only morning dose.
A randomized, double-blind, multiple dose, parallel-group study assessing the efficacy and safety of tapentadol prolonged release 25, 50 and 100 mg compared to placebo and tramadol prolonged release 100 mg in patients with chronic low back pain.
Male and female patients 18-75 years old with a history of low back pain of at least 6 months, requiring regular treatment on at least 60 out of last 90 days.
430 patients, randomized to placebo, tramadol 100 mg prolonged release, 3 dosages tapentadol.
A randomized, double-blind, parallel-group study assessing the efficacy and safety of two titration regimen of tapentadol prolonged release (25 mg, 50 mg, 100 mg and 100 mg, 150 mg, 200 mg of free base of tapentadol) given orally twice daily (bid) compared to placebo and oxycodone controlled release (10 mg, 10 mg, 20 mg) in patients with chronic pain due to osteoarthritis of the knee. Subjects: Male and female patients≥40 years old with a diagnosis of osteoarthritis of the knee Treatment Regimen: Patients started with the lowest dose of the titration phase for the first 3 days and up-titrated to the intermediate dose on day 4. Subjects were maintained at the intermediate dose for the next 11 days. After these 11 days patients started the maintenance phase and received the highest dose of each regimen for the remaining 14 days. Subjects who were unable to tolerate the highest dose after having received that dose for at least 3 days were allowed to down titrate to the intermediate dose. Down titration was permitted only once during the fixed-dose maintenance phase.
A randomized, double-blind, parallel-group study that compares the efficacy and safety of two titration regimens of tapentadol prolonged release (25 mg-50 mg-100 mg and 100 mg-150 mg-200 mg) given orally twice daily (bid) and tramadol prolonged release (100 mg-150 mg-200 mg) p.o. bid to placebo in patients with moderate to severe chronic pain due to chronic low back pain. Subjects: Male and female patients≥18 years old with a diagnosis of low back pain of at least 3 months. Treatment Regimen:
Patients took the first dose and continued on the lowest dose in their treatment regimen for 3 days (i.e. 6 doses). After the sixth dose, patients titrated to the intermediate dose in their treatment regimen and continued on this intermediate dose for 11 days (i.e. 22 doses). Up-titration was mandatory. Patients who were unable to tolerate study medication were removed from the study. After the twenty second dose, patients titrated to the final dose in their treatment regimen and continued on this final dose for 14 days.
Concentration measurements were taken from comparative examples C-1 and C-2, both without dose titration. Examples E-1 and E-2 in the same indications were used to get PK/PD information under dose titration. In all studies adverse events were noted.

[3] = system: pain; assay: Preliminary clinical trials: pain treating effect (VAS) versus serum concentration of tapentadol; format: in vivo, human (individuals)
Experimental: In one preferred embodiment dose a is below the pharmaceutically effective pain treating dose of tapentadol. The pharmaceutically effective pain treating dose of tapentadol may vary individually and can be determined by routine experimentation for a given subject. Usually, the minimum pharmaceutically effective pain treating dose will be above 50 mg twice daily (bid). Preferably, effective pain treatment is to be regarded as at least 5% decrease in pain in an individual, more preferably at least 10%, still more preferably at least 15% and most preferably at least 20% decrease in pain in an individual, taking into account that low serum concentrations of tapentadol suffice to show an effect in individuals that are relatively sensitive and higher serum concentrations of tapentadol are needed to show an effect in persons that are relatively unsensitive.

[4] = system: adverse effects; settings: cited from earlier work
[5] = 2 to 4 days after last study drug intake
[6] = 5 or more days after last study drug intake

**Q.** With COc1ccc2c3c1O[C@H]1C(=O)CC[C@@]4(O)[C@@H](C2)N(C)CC[C@]314 [oxycodone IR, reference compound] as the compound, how does the “mean total SOWS score” value [1, 5] read?
**A.** The value was 8.7.

**Q.** What about the “patients reporting mild-to-moderate withdrawal symptoms (COWS assessment)” value [1] of the same compound?
**A.** Its value is 29%.

**Q.** What about the “mean total SOWS score” value [1, 6] of the same compound?
**A.** The value was 7.0.

**Q.** Which “effect of titration regimen of example E-1 on suppression of somnolence” value ([2]; FIG. 8, oxycodone controlled release) does the source give for COc1ccc2c3c1O[C@H]1C(=O)CC[C@@]4(O)[C@@H](C2)N(C)CC[C@]314 [oxycodone, reference compound] here?
**A.** The value was “no comparable effect on the suppression of somnolence”.

**Q.** Which results are given for CC[C@@H](c1cccc(O)c1)[C@@H](C)CN(C)C [tapentadol IR]?
**A.** mean total SOWS score [1, 5]: 6.9; patients reporting mild-to-moderate withdrawal symptoms (COWS assessment) [1]: 17%; mean total SOWS score [1, 6]: 6.3

**Q.** Which results are given for CC[C@@H](c1cccc(O)c1)[C@@H](C)CN(C)C [tapentadol, (−)-(1R,2R)-3-(3-dimethylamino-1-ethyl-2-methyl-propyl)-phenol]?
**A.** visual analog scale (VAS) in a population mean ([3]; at serum concentration about 5 ng/ml): approximately −2 mm; visual analog scale (VAS) in a population mean ([3]; at serum concentration about 300 ng/ml): approximately −15 mm; concentration at which adverse events (somnolence) occurred, without titration (C-1, C-2) compared to dose titration (E-1, E-2) ([2]; FIG. 5 and 6, prolonged release): much lower concentration; somnolence occurred in % of patients ([2]; studies using forced titration, total daily dose 200 mg, pooled data): 6%; somnolence occurred in % of patients ([2]; studies using forced titration, total daily dose 400 mg, pooled data): 12%; somnolence occurred in % of patients ([2]; studies without titration, total daily dose 172 mg, pooled data from both studies): 4.3%

**Q.** Which results are given for COc1cccc(C2(O)CCCCC2CN(C)C)c1 (stereo not drawn) [tramadol]?
**A.** frequency of dizziness, nausea and vomiting with slow titration [4]: reduce the frequency; frequency of somnolence with slow titration [4]: not significantly reduced
